PubChem BioAssay AID463206 (Broad Institute, 2010)
Values joined by “and” are separate entries in the source; they are usually repeats but may differ in a detail not shown here. Identical values can stand only once. Active and inactive are the calls of the source.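 Rule for the calls: active = caspase luminescence falls with dose and the half-maximal concentration AC50 from the fitted curve is at or below a set limit; inconclusive = flat fit at 30 to 70% signal loss, or invalid fit; inactive = AC50 above the limit, or signal rises instead.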

Tested on: INS-1E cytokine-induced caspase-3/7, Caspase-Glo luminescence, 48 h
Assay: suppression of cytokine-driven beta-cell apoptosis – INS-1E rat cells, luminescence, orthogonal assay for beta-cell apoptosis protection project, dose response (AID 463206)

Row | SMILES | AC50
1 | O=C(NC1=C(Nc2ccc(F)cc2)C(=O)c2ccccc2C1=O)c1ccc(Cl)cc1 | > 26 µM (inactive)
2 | O=C1C=C(Nc2ccccc2O)c2ccccc2C1=O | > 26 µM (inactive)
3 | CC(C)c1ccc(/C=C(\c2nc3ccccc3[nH]2)S(=O)(=O)c2ccccc2)cc1 | > 26 µM (inactive)
4 | CCOc1cc(/C=N/Nc2cc(C)nc(-n3nc(C)cc3C)n2)ccc1O | > 26 µM (inactive)
5 | Cc1ccc([N+](=O)[O-])c(OCCN2CCCCCC2)c1 | > 26 µM (inactive)
6 | CCCCNc1c(-c2ccc(-c3cccc(Cl)c3)cc2)nc2ccccn12 | > 26 µM (inactive)
7 | CC(C)OCCCNc1ncnc2c1[nH]c1ccccc12 | > 26 µM (inactive)
8 | CC(=O)c1c(C)[nH]c(C(=O)OCc2cccc(Cl)c2)c1C | > 12 µM (inactive)
9 | N#Cc1ccc(NC(=O)Nc2ccc(Cl)cc2)cc1 | > 26 µM (inactive)
10 | CC(C)C(=O)NC(=S)/C=C1/N(C)c2ccccc2C1(C)C | > 26 µM (inactive)
11 | C=CCn1c(SCN2C(=O)c3ccccc3C2=O)nc2ccc(Cl)cc2c1=O | > 26 µM (inactive)
12 | O=[N+]([O-])c1cnc(Sc2ccncn2)s1 | > 26 µM (inactive)
13 | CCCC(=O)N(CCN(C(=O)CCC)c1ccccc1)c1ccccc1 | > 26 µM (inactive)
14 | FC(F)(F)c1cnc(NNC(=S)Nc2ccc(Cl)cc2)c(Cl)c1 | > 26 µM (inactive)
15 | Cc1cc(N/N=C\c2ccc(Br)cc2)nc(-n2nc(C)cc2C)n1 | > 26 µM (inactive)
16 | CCN1CCN(Cc2ccc(NC(=O)c3cc(NC(=O)C(=O)c4c[nH]c5ccccc45)cc(OC)c3)cc2C(F)(F)F)CC1 | > 26 µM (inactive)
17 | Cc1cc[n+](C(C)C(=O)c2ccc(-c3ccccc3)cc2)cc1 (configuration not stated) | > 26 µM (inactive)
18 | Cc1cccc2nc(CSc3nc4[nH]ncc4c(=O)n3-c3cccc(Cl)c3)cc(=O)n12 | > 26 µM (inactive)
19 | Oc1c(C(c2ccccc2Cl)N2CCCC2)ccc2cccnc12 (configuration not stated) | > 26 µM (inactive)

Row | SMILES | AC50
20 | CCN1CCN(Cc2ccc(NC(=O)c3ccc(C)c(NC(=O)C(=O)c4c[nH]c5ccccc45)c3)cc2C(F)(F)F)CC1 | > 12 µM (inactive) and > 26 µM (inactive)
21 | CC(=O)/C=C/n1c(=S)oc2ccccc21 | > 26 µM (inactive)
22 | COc1cc(SC#N)ccc1N=Cc1c(C)[nH]n(-c2ccc(C)cc2)c1=O | > 26 µM (inactive)
23 | Cc1ccccc1CNc1ccc(C(CC(N)=O)NC(=O)c2ccc(Br)cc2)cc1[N+](=O)[O-] (configuration not stated) | > 26 µM (inactive)
24 | CCSc1ccc(NC(=O)c2cccnc2)cc1 | > 26 µM (inactive)
25 | Cc1ccc(/C=N/Nc2ccnc3cc(Cl)ccc23)c(C)c1 | > 12 µM (inactive)
26 | O=c1[nH]c(=O)n(-c2ccc(F)cc2)c2c1C(C(F)(F)F)(C(F)(F)F)N=C(c1ccc(F)cc1)N2 | > 26 µM (inactive)
27 | O=C(Nc1cc(Sc2ccccn2)cc([N+](=O)[O-])c1)c1ccc(Cl)cc1 | > 26 µM (inactive)
28 | CCCCC(=O)NC(c1ccccc1Cl)c1ccc2cccnc2c1O (configuration not stated) | > 26 µM (inactive)
29 | O=C1c2ccccc2C2=Nc3ccccc3SC(c3ccc(Cl)cc3)C12 (configuration not stated) | > 26 µM (inactive)
30 | CCN1CCN(C2=C(NS(=O)(=O)c3ccccc3)C(=O)c3ccccc3C2=O)CC1 | > 26 µM (inactive)
31 | Cc1cc(N2CCCC2=O)cc(C)c1S(=O)(=O)NCCOc1ccc(C(C)(C)C)cc1 | > 26 µM (inactive)
32 | COc1ccccc1C(=O)Nc1nc(-c2ccc(S(=O)(=O)N3CCOCC3)cc2)cs1 | > 26 µM (inactive)
33 | Cc1cc(/C=N/n2cnnc2)c(C)n1-c1ccc(OCc2ccc(Cl)cc2Cl)cc1 | > 26 µM (inactive)
34 | CCOc1cccc(/C=N/Nc2ccc(S(=O)(=O)N(CC)CC)cn2)c1O | > 26 µM (inactive)
35 | O=C(C1=C[C@@H](c2ccc(C(F)(F)F)cc2)C[C@@H](OCCCCO)O1)N1CCN(Cc2ccccc2)CC1 | > 26 µM (inactive)
36 | Cc1ccc2oc(-c3ccc(NC(=O)c4cccnc4)cc3)nc2c1 | > 26 µM (inactive)
37 | CCCCCCC(=O)N1C/C=C\C(c2ccc(OC)cc2)N(Cc2ccc(F)cc2)C(=O)[C@H]1Cc1ccccc1 (some centres not stated) | > 26 µM (inactive)
